Experimental data taken from patent publication US20240217978A1 (CHONG KUN DANG PHARMACEUTICAL CORP., priority 2021, published 2024).

What follows are molecules tested against human adenosine A2a receptor (Homo sapiens (Human), UniProt P29274) (assay: A2a receptor binding affinity, [3H]-NECA radioligand binding test). Settings: [3H]-NECA 37 nM; membrane from HEK-293 cells transfected with human adenosine A2a receptor.
Sequence of human adenosine A2a receptor (P29274 whole entry): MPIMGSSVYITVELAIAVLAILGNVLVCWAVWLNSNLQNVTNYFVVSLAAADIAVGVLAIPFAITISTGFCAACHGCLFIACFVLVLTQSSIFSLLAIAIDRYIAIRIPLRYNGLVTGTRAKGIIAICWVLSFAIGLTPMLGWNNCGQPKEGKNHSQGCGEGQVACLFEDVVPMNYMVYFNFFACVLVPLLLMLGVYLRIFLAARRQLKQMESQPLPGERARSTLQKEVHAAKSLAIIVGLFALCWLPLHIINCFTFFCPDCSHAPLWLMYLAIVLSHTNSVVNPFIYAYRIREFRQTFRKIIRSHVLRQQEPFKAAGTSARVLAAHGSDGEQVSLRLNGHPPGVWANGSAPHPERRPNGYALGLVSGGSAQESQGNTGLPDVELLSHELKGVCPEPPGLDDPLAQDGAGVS
In short: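 Membranes from HEK-293 cells expressing human A2a receptor were incubated with [3H]-NECA (final 37 nM) and compound for 1 h at room temperature in 50 mM Tris, 10 mM MgCl2, 1 mM EDTA, pH 7.4. Bound ligand was filtered on PEI-coated plates and counted by scintillation to derive IC50 (μM).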
Molecule `Nc1nc(N2CC[C@H]2C(=O)N2CCC(C3CCN(CC(F)(F)C(F)(F)F)CC3)CC2)nc2nc(-c3ccco3)nn12` [Example 326, (S)-(1-(7-amino-2-(furan-2-yl)-[1,2,4]triazolo[1,5-a][1,3,5]triazin-5-yl)azetidin-2-yl)(1′-(2,2,3,3,3-pentafluoropropyl)-[4,4′-bipiperidin]-1-yl)methanone] has an IC50 of 0.0008 µM. In the case of `CC(C)(O)CC(=O)N1CCC(C2CCN(C(=O)[C@@H]3CCN3c3nc(N)n4nc(-c5ccco5)nc4n3)CC2)CC1` [Example 327, (S)-1-(1′-(1-(7-amino-2-(furan-2-yl)-[1,2,4]triazolo[1,5-a][1,3,5]triazin-5-yl)azetidine-2-carbonyl)-[4,4′-bipiperidin]-1-yl)-3-hydroxy-3-methylbutan-1-one], the IC50 is reported as 0.011 µM. `CCCCN1CCC(C2CCN(C(=O)[C@@H]3CCN3c3nc(N)n4nc(-c5ccco5)nc4n3)CC2)CC1` [Example 328, (S)-(1-(7-amino-2-(furan-2-yl)-[1,2,4]triazolo[1,5-a][1,3,5]triazin-5-yl)azetidin-2-yl)(1′-butyl-[4,4′-bipiperidin]-1-yl)methanone] showed an IC50 of 0.025 µM. With `COCCN1CCC(C2CCN(C(=O)[C@@H]3CCN3c3nc(N)n4nc(-c5ccco5)nc4n3)CC2)CC1` [Example 329, (S)-(1-(7-amino-2-(furan-2-yl)-[1,2,4]triazolo[1,5-a][1,3,5]triazin-5-yl)azetidin-2-yl)(1′-(2-methoxyethyl)-[4,4′-bipiperidin]-1-yl)methanone] the IC50 was 0.026 µM. `Nc1nc(N2CCC[C@H]2C(=O)N2CCN(CC3CCC(C(F)(F)F)CC3)CC2)nc2nc(-c3ccco3)nn12` (stereo partly drawn) [Example 330, (S)-(1-(7-amino-2-(furan-2-yl)-[1,2,4]triazolo[1,5-a][1,3,5]triazin-5-yl)pyrrolidin-2-yl)(4-((4-(trifluoromethyl)cyclohexyl)methyl)piperazin-1-yl)methanone] showed an IC50 of 0.011 µM. Molecule `Nc1nc(N2CCC[C@H]2C(=O)N2CCC(CN3CCC(C(F)(F)F)CC3)CC2)nc2nc(-c3ccco3)nn12` [Example 331, (S)-(1-(7-amino-2-(furan-2-yl)-[1,2,4]triazolo[1,5-a][1,3,5]triazin-5-yl)pyrrolidin-2-yl)(4-((4-(trifluoromethyl)piperidin-1-yl)methyl)piperidin-1-yl)methanone] has an IC50 of 0.01 µM. Work on `C[C@H](Nc1nc(N)n2nc(-c3ccco3)nc2n1)C(=O)N1CCC(C2CCN(CC(C)(C)F)CC2)CC1` [Example 332, (S)-2-((7-amino-2-(furan-2-yl)-[1,2,4]triazolo[1,5-a][1,3,5]triazin-5-yl)amino)-1-(1′-(2-fluoro-2-methylpropyl)-[4,4′-bipiperidin]-1-yl)propan-1-one] yielded an IC50 of 0.005 µM. In the case of `C[C@H](Nc1nc(N)n2nc(-c3ccco3)nc2n1)C(=O)N1CCC(C2CCN(CC(C)(C)O)CC2)CC1` [Example 333, (S)-2-((7-amino-2-(furan-2-yl)-[1,2,4]triazolo[1,5-a][1,3,5]triazin-5-yl)amino)-1-(1′-(2-hydroxy-2-methylpropyl)-[4,4′-bipiperidin]-1-yl)propan-1-one], the IC50 is reported as 0.009 µM. For `C[C@H](Nc1nc(N)n2nc(-c3ccco3)nc2n1)C(=O)N1CCC(C2CCN(CC(F)F)CC2)CC1` [Example 334, (S)-2-((7-amino-2-(furan-2-yl)-[1,2,4]triazolo[1,5-a][1,3,5]triazin-5-yl)amino)-1-(1′-(2,2-difluoroethyl)-[4,4′-bipiperidin]-1-yl)propan-1-one], the IC50 was 0.013 µM. `C[C@H](Nc1nc(N)n2nc(-c3ccco3)nc2n1)C(=O)N1CCC(C2CCN(CC(C)(F)F)CC2)CC1` [Example 335, (S)-2-((7-amino-2-(furan-2-yl)-[1,2,4]triazolo[1,5-a][1,3,5]triazin-5-yl)amino)-1-(1′-(2,2-difluoropropyl)-[4,4′-bipiperidin]-1-yl)propan-1-one] was tested, and the IC50 was 0.001 µM. In the case of `CN(CC(F)(F)F)C1CCN(C(=O)[C@@H]2CCCN2c2nc(N)n3nc(-c4ccco4)nc3n2)CC1` [Example 337, (S)-(1-(7-amino-2-(furan-2-yl)-[1,2,4]triazolo[1,5-a][1,3,5]triazin-5-yl)pyrrolidin-2-yl)(4-(methyl(2,2,2-trifluoroethyl)amino)piperidin-1-yl)methanone], the IC50 is reported as 0.009 µM. `CC[C@H](Nc1nc(N)n2nc(-c3ccco3)nc2n1)C(=O)N1CCN(CC(C)(C)F)CC1` [Example 338, (S)-2-((7-amino-2-(furan-2-yl)-[1,2,4]triazolo[1,5-a][1,3,5]triazin-5-yl)amino)-1-(4-(2-fluoro-2-methylpropyl)piperazin-1-yl)butan-1-one] gave an IC50 of 0.014 µM. With `CC(C)(F)CN1CCN(C(=O)[C@@H](Nc2nc(N)n3nc(-c4ccco4)nc3n2)C2CC2)CC1` [Example 339, (S)-2-((7-amino-2-(furan-2-yl)-[1,2,4]triazolo[1,5-a][1,3,5]triazin-5-yl)amino)-2-cyclopropyl-1-(4-(2-fluoro-2-methylpropyl)piperazin-1-yl)ethan-1-one] the IC50 was 0.018 µM. Work on `C[C@H](Nc1nc(N)c2nc(-c3ccco3)sc2n1)C(=O)N1CCN(C(=O)CC(C)(C)O)CC1` [Example 340, 1-(4-((7-amino-2-(furan-2-yl)thiazolo[5,4-d]pyrimidin-5-yl)-L-alanyl)piperazin-1-yl)-3-hydroxy-3-methylbutan-1-one] yielded an IC50 of 0.074 µM. For `Nc1nc(N2CCC[C@H]2C(=O)N2CCN(CC(F)F)CC23CC3)nc2nc(-c3ccco3)nn12` [Example 341, (S)-(1-(7-amino-2-(furan-2-yl)-[1,2,4]triazolo[1,5-a][1,3,5]triazin-5-yl)pyrrolidin-2-yl)(7-(2,2-difluoroethyl)-4,7-diazaspiro[2.5]octan-4-yl)methanone], the IC50 was 0.028 µM. `Nc1nc(N2CCC[C@H]2C(=O)N2CCN(CC(F)(F)F)CC23CC3)nc2nc(-c3ccco3)nn12` [Example 342, (S)-(1-(7-amino-2-(furan-2-yl)-[1,2,4]triazolo[1,5-a][1,3,5]triazin-5-yl)pyrrolidin-2-yl)(7-(2,2,2-trifluoroethyl)-4,7-diazaspiro[2.5]octan-4-yl)methanone] gave an IC50 of 0.008 µM. With `CC(F)(F)CN1CCN(C(=O)[C@@H]2CCCN2c2nc(N)n3nc(-c4ccco4)nc3n2)C2(CC2)C1` [Example 343, (S)-(1-(7-amino-2-(furan-2-yl)-[1,2,4]triazolo[1,5-a][1,3,5]triazin-5-yl)pyrrolidin-2-yl)(7-(2,2-difluoropropyl)-4,7-diazaspiro[2.5]octan-4-yl)methanone] the IC50 was 0.009 µM. Molecule `Nc1nc(N2CCC[C@H]2C(=O)N2CCN(C3CCCCC3)CC23CC3)nc2nc(-c3ccco3)nn12` [Example 344, (S)-(1-(7-amino-2-(furan-2-yl)-[1,2,4]triazolo[1,5-a][1,3,5]triazin-5-yl)pyrrolidin-2-yl)(7-cyclohexyl-4,7-diazaspiro[2.5]octan-4-yl)methanone] has an IC50 of 0.016 µM. Molecule `Nc1nc(N2CCC[C@H]2C(=O)N2CC3(CN(CC(F)(F)F)C3)C2)nc2nc(-c3ccco3)nn12` [Example 345, (S)-(1-(7-amino-2-(furan-2-yl)-[1,2,4]triazolo[1,5-a][1,3,5]triazin-5-yl)pyrrolidin-2-yl)(6-(2,2,2-trifluoroethyl)-2,6-diazaspiro[3.3]heptan-2-yl)methanone] has an IC50 of 0.013 µM. `CC[C@H](Nc1nc(N)n2nc(-c3ccco3)nc2n1)C(=O)N1CCN(c2ncccn2)CC1` [Example 346, (S)-2-((7-amino-2-(furan-2-yl)-[1,2,4]triazolo[1,5-a][1,3,5]triazin-5-yl)amino)-1-(4-(pyrimidin-2-yl)piperazin-1-yl)butan-1-one] was tested, and the IC50 was 0.008 µM. `CCC(O)(CC)CN1CCN(C(=O)[C@@H]2CCN2c2nc(N)n3nc(-c4ccco4)nc3n2)CC1` [Example 347, (S)-(1-(7-amino-2-(furan-2-yl)-[1,2,4]triazolo[1,5-a][1,3,5]triazin-5-yl)azetidin-2-yl)(4-(2-ethyl-2-hydroxybutyl)piperazin-1-yl)methanone] was tested, and the IC50 was 0.017 µM. `CCC(O)(CC)CN1CCN(C(=O)[C@@H](Nc2nc(N)n3nc(-c4ccco4)nc3n2)C(C)C)CC1` [Example 348, (S)-2-((7-amino-2-(furan-2-yl)-[1,2,4]triazolo[1,5-a][1,3,5]triazin-5-yl)amino)-1-(4-(2-ethyl-2-hydroxybutyl)piperazin-1-yl)-3-methylbutan-1-one] showed an IC50 of 0.005 µM. `C[C@H](Nc1nc(N)n2nc(-c3ccco3)nc2n1)C(=O)N1CCN(CC(C)(C)O)CC1` [Example 349, (S)-2-((7-amino-2-(furan-2-yl)-[1,2,4]triazolo[1,5-a][1,3,5]triazin-5-yl)amino)-1-(4-(2-hydroxy-2-methylpropyl)piperazin-1-yl)propan-1-one] gave an IC50 of 0.0122 µM. Work on `CC(C)(O)CN1CCN(C(=O)[C@@H]2CCN2c2nc(N)n3nc(-c4ccco4)nc3n2)CC1` [Example 350, (S)-(1-(7-amino-2-(furan-2-yl)-[1,2,4]triazolo[1,5-a][1,3,5]triazin-5-yl)azetidin-2-yl)(4-(2-hydroxy-2-methylpropyl)piperazin-1-yl)methanone] yielded an IC50 of 0.009 µM. In the case of `CC(C)[C@H](Nc1nc(N)n2nc(-c3ccco3)nc2n1)C(=O)N1CCN(CC(C)(C)O)CC1` [Example 351, (S)-2-((7-amino-2-(furan-2-yl)-[1,2,4]triazolo[1,5-a][1,3,5]triazin-5-yl)amino)-1-(4-(2-hydroxy-2-methylpropyl)piperazin-1-yl)-3-methylbutan-1-one], the IC50 is reported as 0.017 µM. With `CC(C)(F)CN1CCN(C(=O)[C@@H]2CCCN2c2cc3nc(-c4ccco4)nn3c(N)n2)CC1` [Example 352, (S)-(1-(5-amino-2-(furan-2-yl)-[1,2,4]triazolo[1,5-c]pyrimidin-7-yl)pyrrolidin-2-yl)(4-(2-fluoro-2-methylpropyl)piperazin-1-yl)methanone] the IC50 was 0.006 µM. In the case of `Nc1nc(N2CCCN2C(=O)N2CCN(CC(F)(F)F)CC2)nc2nc(-c3ccco3)nn12` [Example 353, (2-(7-amino-2-(furan-2-yl)-[1,2,4]triazolo[1,5-a][1,3,5]triazin-5-yl)pyrazolidin-1-yl)(4-(2,2,2-trifluoroethyl)piperazin-1-yl)methanone], the IC50 is reported as 0.008 µM.
